Measured values published in ChEMBL document CHEMBL1949630, “Discovery of benzodihydroisofurans as novel, potent, bioavailable and brain-penetrant prolylcarboxypeptidase inhibitors” (Bioorg Med Chem Lett, 2012).
pIC50: −log10 of the molar value. The source made the active and inactive calls. The rule behind the calls is not given here.

Tests used:
[1] = Drug uptake in PrCP knockout mouse brain at 30 mg/kg, po qd for 5 days measured on day 6; type: ADME, organism-based; design: dose 30 mg/kg, route oral; settings: read-out: Drug uptake
[2] = Drug uptake in established diet-induced obese wild type C57BL/6 mouse brain at 30 mg/kg, po qd for 5 days measured on day 6; type: ADME, organism-based; design: dose 30 mg/kg, route oral; settings: read-out: Drug uptake
[3] = Fraction unbound in human plasma; type: ADME, cell-free
[4] = Half life in C57BL/6 mouse at 1 mg/kg, iv and 2 mg/kg, po by LC/MS/MS analysis; type: ADME, organism-based; settings: in vivo
[5] = Oral bioavailability in C57BL/6 mouse at 2 mg/kg by LC/MS/MS analysis; type: ADME, organism-based; settings: in vivo
[6] = target: T1, Lysosomal Pro-X carboxypeptidase (Mus musculus, UniProt Q7TMR0); experiment: Inhibition of PrCP in mouse plasma assessed as angiotensin 3 cleavage by whole serum shift assay
T1 sequence (Q7TMR0 whole entry): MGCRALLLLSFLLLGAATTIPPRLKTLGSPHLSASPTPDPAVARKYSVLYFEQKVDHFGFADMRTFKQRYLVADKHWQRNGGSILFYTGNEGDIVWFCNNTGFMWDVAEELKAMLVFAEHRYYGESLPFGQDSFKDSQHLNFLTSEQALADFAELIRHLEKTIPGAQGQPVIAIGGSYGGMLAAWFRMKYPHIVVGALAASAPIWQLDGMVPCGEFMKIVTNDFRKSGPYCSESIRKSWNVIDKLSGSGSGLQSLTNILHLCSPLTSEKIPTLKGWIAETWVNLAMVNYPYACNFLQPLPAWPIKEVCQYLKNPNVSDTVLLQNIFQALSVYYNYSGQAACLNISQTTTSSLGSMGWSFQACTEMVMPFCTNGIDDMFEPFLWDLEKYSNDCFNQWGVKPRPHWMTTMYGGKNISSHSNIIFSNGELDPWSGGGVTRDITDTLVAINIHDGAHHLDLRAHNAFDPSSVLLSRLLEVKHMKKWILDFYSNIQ

[7] = target: T2, Lysosomal Pro-X carboxypeptidase (Mus musculus) (UniProt Q7TMR0); experiment: Inhibition of mouse PrCP in 30 mg/kg, po qd for 5 days established diet-induced obese wild type C57BL/6 mouse heat inactivated plasma measured on day 6; type: organism-based; design: dose 30 mg/kg; settings: at 30 mg/kg
T2 sequence (whole entry): T1 sequence (Q7TMR0 whole entry)

[8] = target: T2, Lysosomal Pro-X carboxypeptidase (Mus musculus); experiment: Inhibition of mouse PrCP in 30 mg/kg, po administered qd for 2 days established diet-induced obese C57BL/6 mouse heat inactivated plasma; type: organism-based; design: dose 30 mg/kg; settings: at 30 mg/kg
[9] = Plasma concentration in PrCP knockout mouse at 30 mg/kg, po qd for 5 days measured on day 6; type: ADME, organism-based; design: dose 30 mg/kg, route oral
Mus musculus [10] = experiment: Dose normalized AUC in C57BL/6 mouse at 2 mg/kg by LC/MS/MS analysis; type: ADME, organism-based; design: dose 2 mg/kg; settings: in vivo
[11] = Oral bioavailability in dog at 2 mg/kg by LC/MS/MS analysis; type: ADME, organism-based, Canis lupus familiaris; settings: in vivo
Mus musculus [12] = experiment: Antiobesity activity in established diet-induced obese C57BL/6 mouse assessed as reduction of body weight at 30 mg/kg, po qd for 5 days; type: functional, organism-based; design: dose 30 mg/kg
Mus musculus [13] = experiment: Antiobesity activity in PrCP knockout mouse assessed as reduction of body weight at 30 mg/kg, po qd for 5 days; type: functional, organism-based; design: dose 30 mg/kg
Rattus norvegicus = experiment: Dose normalized AUC in rat at 2 mg/kg by LC/MS/MS analysis; type: ADME, organism-based; design: dose 2 mg/kg; settings: in vivo
[14] = Plasma concentration in established diet-induced obese C57BL/6 mouse at 10 mg/kg, po qd for 2 days; type: ADME, organism-based; design: dose 10 mg/kg, route oral
[15] = Volume of distribution at steady state in C57BL/6 mouse at 1 mg/kg, iv and 2 mg/kg, po by LC/MS/MS analysis; type: ADME, organism-based; settings: in vivo, read-out: Vdss
[16] = Half life in rat at 1 mg/kg, iv and 2 mg/kg, po by LC/MS/MS analysis; type: ADME, organism-based; settings: in vivo
[17] = Half life in dog at 1 mg/kg, iv and 2 mg/kg, po by LC/MS/MS analysis; type: ADME, organism-based, Canis lupus familiaris; settings: in vivo
[18] = Plasma concentration in established diet-induced obese C57BL/6 mouse at 3 mg/kg, po qd for 2 days; type: ADME, organism-based; design: dose 3 mg/kg, route oral
[19] = Clearance in C57BL/6 mouse at 1 mg/kg, iv and 2 mg/kg, po by LC/MS/MS analysis; type: ADME, organism-based; settings: in vivo
[20] = Drug uptake in established diet-induced obese C57BL/6 mouse blood at 30 mg/kg, po qd for 2 days; type: ADME, organism-based; design: dose 30 mg/kg, route oral; settings: read-out: Drug uptake
[21] = target: T2, Lysosomal Pro-X carboxypeptidase (Mus musculus); experiment: Inhibition of mouse PrCP in 10 mg/kg, po administered qd for 2 days established diet-induced obese C57BL/6 mouse heat inactivated plasma; type: organism-based; design: dose 10 mg/kg; settings: at 10 mg/kg
[22] = Oral bioavailability in rat at 2 mg/kg by LC/MS/MS analysis; type: ADME, organism-based; settings: in vivo
[23] = Ratio of drug level in brain to plasma in p-gp-/- mouse at 3 mg/kg, po after 4 hrs; type: ADME, organism-based; design: dose 3 mg/kg, route oral; settings: brain and plasma, read-out: BPR
[24] = Drug uptake in established diet-induced obese C57BL/6 mouse brain at 3 mg/kg, po qd for 2 days; type: ADME, organism-based; design: dose 3 mg/kg, route oral; settings: read-out: Drug uptake
[25] = Plasma concentration in established diet-induced obese wild type C57BL/6 mouse at 30 mg/kg, po qd for 5 days measured on day 6; type: ADME, organism-based; design: dose 30 mg/kg, route oral
[26] = Drug uptake in established diet-induced obese C57BL/6 mouse blood at 10 mg/kg, po qd for 2 days; type: ADME, organism-based; design: dose 10 mg/kg, route oral; settings: read-out: Drug uptake
[27] = Fraction unbound in mouse plasma; type: ADME, cell-free
[28] = Ratio of drug level in brain to plasma in wild type CF1 mouse at 3 mg/kg, po after 4 hrs; type: ADME, organism-based; design: dose 3 mg/kg, route oral; settings: brain and plasma, read-out: BPR
[29] = target: T2, Lysosomal Pro-X carboxypeptidase (Mus musculus); experiment: Inhibition of mouse PrCP in 30 mg/kg, po qd for 5 days established diet-induced obese wild type C57BL/6 mouse heat inactivated brain homogenates measured on day 6; type: organism-based; design: dose 30 mg/kg; settings: at 30 mg/kg
[30] = Plasma concentration in established diet-induced obese C57BL/6 mouse at 30 mg/kg, po qd for 2 days; type: ADME, organism-based; design: dose 30 mg/kg, route oral
[31] = Drug uptake in established diet-induced obese C57BL/6 mouse blood at 3 mg/kg, po qd for 2 days; type: ADME, organism-based; design: dose 3 mg/kg, route oral; settings: read-out: Drug uptake
[32] = target: T2, Lysosomal Pro-X carboxypeptidase (Mus musculus); experiment: Inhibition of mouse PrCP in 3 mg/kg, po administered qd for 2 days established diet-induced obese C57BL/6 mouse heat inactivated plasma; type: organism-based; design: dose 3 mg/kg; settings: at 3 mg/kg
[33] = target: T1, Lysosomal Pro-X carboxypeptidase; experiment: Inhibition of mouse PrCP
[34] = Volume of distribution at steady state in rat at 1 mg/kg, iv and 2 mg/kg, po by LC/MS/MS analysis; type: ADME, organism-based; settings: in vivo, read-out: Vdss
[35] = Drug uptake in established diet-induced obese C57BL/6 mouse brain at 30 mg/kg, po qd for 2 days; type: ADME, organism-based; design: dose 30 mg/kg, route oral; settings: read-out: Drug uptake
[36] = Clearance in rat at 1 mg/kg, iv and 2 mg/kg, po by LC/MS/MS analysis; type: ADME, organism-based; settings: in vivo
[37] = Drug uptake in established diet-induced obese C57BL/6 mouse brain at 10 mg/kg, po qd for 2 days; type: ADME, organism-based; design: dose 10 mg/kg, route oral; settings: read-out: Drug uptake
[38] = Volume of distribution at steady state in dog at 1 mg/kg, iv and 2 mg/kg, po by LC/MS/MS analysis; type: ADME, organism-based, Canis lupus familiaris; settings: in vivo, read-out: Vdss
[39] = Clearance in dog at 1 mg/kg, iv and 2 mg/kg, po by LC/MS/MS analysis; type: ADME, organism-based, Canis lupus familiaris; settings: in vivo
[40] = target: T2, Lysosomal Pro-X carboxypeptidase (Mus musculus); experiment: Inhibition of mouse PrCP in qd for 2 days po dosed established diet-induced obese C57BL/6 mouse heat inactivated plasma; type: organism-based
Canis familiaris = experiment: Dose normalized AUC in dog at 2 mg/kg by LC/MS/MS analysis; type: ADME, organism-based, Canis lupus familiaris; design: dose 2 mg/kg; settings: in vivo

concentration at 120 h [1]: 820 nM
concentration at 120 h [2]: 690 nM
fraction unbound [3]: < 0.0006
half-life [4]: 6.7 h
bioavailability [5]: 35%
pIC50 [6]: 7.64
inhibition [7]: 88%
inhibition [8]: 93%
concentration at 120 h [9]: 1570 nM
AUC/dose (Mus musculus [10]): 0.28 µM·kg·h/mg
bioavailability [11]: 88%
AUC/dose (Rattus norvegicus): 1.8 µM·kg·h/mg
concentration at 48 h [14]: 240 nM
Vd [15]: 20 L/kg
half-life [16]: 8.9 h
half-life [17]: 14 h
concentration at 48 h [18]: 50 nM
clearance [19]: 45 mL/min/kg
concentration at 48 h [20]: 590 nM
inhibition [21]: 82%
bioavailability [22]: 60%
Kp at 4 h [23]: 1.9
concentration at 48 h [24]: 30 nM
concentration at 120 h [25]: 1420 nM
concentration at 48 h [26]: 280 nM
fraction unbound [27]: < 0.0006
Kp at 4 h [28]: 0.94
inhibition [29]: 61%
concentration at 48 h [30]: 520 nM
concentration at 48 h [31]: 80 nM
inhibition [32]: 53%
pIC50 [33]: 9.74
Vd [34]: 5.9 L/kg
concentration at 48 h [35]: 520 nM
clearance [36]: 11 mL/min/kg
concentration at 48 h [37]: 110 nM
Vd [38]: 5.5 L/kg
clearance [39]: 5.9 mL/min/kg
inhibition [40]: Dose-dependent effect
AUC/dose (Canis familiaris): 5 µM·kg·h/mg
Structure (SMILES): FC(F)(F)Oc1ccc(CN2CCC3(CC2)OC(c2cc(Cl)ccn2)c2ccccc23)cc1 (configuration not stated)
Activity (Mus musculus [12]): inactive
Activity (Mus musculus [13]): inactive
